Reference: PMC11062899, “De novo development of small cyclic peptides that are orally bioavailable” (Nature Chemical Biology, 2023)
Where “and” joins values, the source holds several entries; their conditions need not be identical. Equal values may be shown once. Read-outs that look alike come from different tables or passages of the source.

Experiments:
rat α-thrombin = target: T1, rat α-thrombin (Rattus norvegicus, UniProt P18292); experiment: Protease inhibition, Ki for rat α-thrombin (fluorogenic substrate Z-Gly-Gly-Arg-AMC); assay type: biochemical; conditions: for slope normalized to DMSO, rat alpha thrombin inhibition / Rat alpha thrombin inhibition, slope normalized to DMSO: replicates R1-R3
T1 construct: rat α-thrombin (Molecular Innovations) were used at final concentrations of 2 nM and 3 nM; purchased Molecular Innovations
Procedure, shortened: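 Ki values come from Cheng–Prusoff correction of IC50, itself fitted by four-parameter logistic regression of activity versus a no-peptide control. Assays used 2 nM human or 3 nM rat thrombin, 50 μM Z-Gly-Gly-Arg-AMC, 30 min kinetic fluorescence at 25 °C.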

porcine pepsin = target: T2, porcine pepsin (Sus scrofa, UniProt P00791); experiment: Peptide stability in simulated gastric fluid (SGF); assay type: in vitro ADME; conditions: pig, simulated gi fluid; 8 h, 37 °C, pH 1.2; read-out: Proteolytic stability: SGF (8 h) % remaining
T2 construct: 0.32 g of porcine pepsin (Sigma-Aldrich, P7125) was dissolved under gentle agitation; purchased Sigma-Aldrich P7125
T2 sequence (P00791 60-385): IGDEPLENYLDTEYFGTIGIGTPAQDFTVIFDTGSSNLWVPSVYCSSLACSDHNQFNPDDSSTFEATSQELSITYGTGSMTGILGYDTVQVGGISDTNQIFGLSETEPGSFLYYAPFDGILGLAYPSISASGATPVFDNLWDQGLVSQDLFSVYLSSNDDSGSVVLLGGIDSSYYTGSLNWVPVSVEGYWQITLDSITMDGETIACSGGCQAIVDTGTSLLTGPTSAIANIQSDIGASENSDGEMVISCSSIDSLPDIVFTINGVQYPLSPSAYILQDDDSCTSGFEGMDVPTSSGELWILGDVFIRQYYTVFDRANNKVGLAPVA
Procedure, shortened: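 Peptide from a 1 mM DMSO stock was added to fluid pre-warmed at 37 °C. SGF was pH 1.2 NaCl with porcine pepsin (0.32 g per 100 ml), and SIF was pH 6.8 potassium phosphate with porcine pancreatin (1 g per 100 ml). Supernatant peptide was quantified by LC–MS, with residual expressed as T1/T0.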

[1] = Passive artificial membrane permeability (PAMPA);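 on Permeability% Average: top well sample relative to theoretical equilibrium sample by TIC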
[2] = Metabolic stability in rat liver microsomes (RLMs); conditions: for TIC value of compound, metabolic stability RLM: replicates R1-R3; for microsomal CLint / half-life: rat, microsomes

O=C1C[C@H]2CCCN2C(=O)[C@H](Cc2ccccc2)NC(=O)[C@@H](NC(=O)c2ccc(Cl)s2)CCC=CCCCCN1 [peptide 43]
slope normalized to DMSO, rat alpha thrombin inhibition (rat α-thrombin; peptide 2.50E+01 uM): 4.6 and 8.1 and 4.9 | slope normalized to DMSO, rat alpha thrombin inhibition (rat α-thrombin; peptide 3.05E-03 uM): 90.9 and 88.2 and 90.2 | slope normalized to DMSO, rat alpha thrombin inhibition (rat α-thrombin; peptide 3.12E+00 uM): 7.5 and 10.1 and 7.1 | slope normalized to DMSO, rat alpha thrombin inhibition (rat α-thrombin; peptide 3.81E-04 uM): 96.2 and 101.3 and 91.7 | slope normalized to DMSO, rat alpha thrombin inhibition (rat α-thrombin; peptide 3.91E-01 uM): 12.4 and 9.5 and 6.1 | slope normalized to DMSO, rat alpha thrombin inhibition (rat α-thrombin; peptide 4.77E-05 uM): 105.1 and 89.9 and 85.4 | slope normalized to DMSO, rat alpha thrombin inhibition (rat α-thrombin; peptide 4.88E-02 uM): 32.8 and 33.4 and 28.7 | slope normalized to DMSO, rat alpha thrombin inhibition (rat α-thrombin; peptide 5.00E+01 uM): 3.1 and 5.6 and 0.5 | slope normalized to DMSO, rat alpha thrombin inhibition (rat α-thrombin; peptide 6.10E-03 uM): 72.5 and 78.4 and 84.7 | slope normalized to DMSO, rat alpha thrombin inhibition (rat α-thrombin; peptide 6.25E+00 uM): 7.7 and -0.5 | slope normalized to DMSO, rat alpha thrombin inhibition (rat α-thrombin; peptide 7.63E-04 uM): 95.8 and 97.3 and 89.3 | slope normalized to DMSO, rat alpha thrombin inhibition (rat α-thrombin; peptide 7.81E-01 uM): 10.1 and 10.3 and 8.9 | slope normalized to DMSO, rat alpha thrombin inhibition (rat α-thrombin; peptide 9.54E-05 uM): 96.1 and 92.0 and 94.2 | slope normalized to DMSO, rat alpha thrombin inhibition (rat α-thrombin; peptide 9.77E-02 uM): 27.3 and 26.5 and 22.9 | Rat alpha thrombin inhibition, slope normalized to DMSO (rat α-thrombin; peptide concentration 1.00E+02 uM): 5.4 and 5.2 and 4.3 | Rat alpha thrombin inhibition, slope normalized to DMSO (rat α-thrombin; peptide concentration 1.19E-05 uM): 102.6 and 102.2 and 91.2 | Rat alpha thrombin inhibition, slope normalized to DMSO (rat α-thrombin; peptide concentration 1.22E-02 uM): 54.9 and 61.5 and 61.2 | Rat alpha thrombin inhibition, slope normalized to DMSO (rat α-thrombin; peptide concentration 1.25E+01 uM): 7.2 and 11.2 and 5.0 | Rat alpha thrombin inhibition, slope normalized to DMSO (rat α-thrombin; peptide concentration 1.53E-03 uM): 90.8 and 92.4 and 84.4 | Rat alpha thrombin inhibition, slope normalized to DMSO (rat α-thrombin; peptide concentration 1.56E+00 uM): 8.6 and 7.9 and 7.3 | Rat alpha thrombin inhibition, slope normalized to DMSO (rat α-thrombin; peptide concentration 1.91E-04 uM): 101.3 and 100.0 and 99.0 | Rat alpha thrombin inhibition, slope normalized to DMSO (rat α-thrombin; peptide concentration 1.95E-01 uM): 18.2 and 17.7 and 18.1 | Rat alpha thrombin inhibition, slope normalized to DMSO (rat α-thrombin; peptide concentration 2.38E-05 uM): 104.9 and 102.6 and 101.9 | Rat alpha thrombin inhibition, slope normalized to DMSO (rat α-thrombin; peptide concentration 2.44E-02 uM): 50.2 and 48.9 and 44.8 | Rat alpha thrombin inhibition, slope normalized to DMSO (rat α-thrombin; peptide concentration 2.50E+01 uM): 4.6 and 8.1 and 4.9 | Rat alpha thrombin inhibition, slope normalized to DMSO (rat α-thrombin; peptide concentration 3.05E-03 uM): 90.9 and 88.2 and 90.2 | Rat alpha thrombin inhibition, slope normalized to DMSO (rat α-thrombin; peptide concentration 3.12E+00 uM): 7.5 and 10.1 and 7.1 | Rat alpha thrombin inhibition, slope normalized to DMSO (rat α-thrombin; peptide concentration 3.81E-04 uM): 96.2 and 101.3 and 91.7 | Rat alpha thrombin inhibition, slope normalized to DMSO (rat α-thrombin; peptide concentration 3.91E-01 uM): 12.4 and 9.5 and 6.1 | Rat alpha thrombin inhibition, slope normalized to DMSO (rat α-thrombin; peptide concentration 4.77E-05 uM): 105.1 and 89.9 and 85.4 | Rat alpha thrombin inhibition, slope normalized to DMSO (rat α-thrombin; peptide concentration 4.88E-02 uM): 32.8 and 33.4 and 28.7 | Rat alpha thrombin inhibition, slope normalized to DMSO (rat α-thrombin; peptide concentration 5.00E+01 uM): 3.1 and 5.6 and 0.5 | Rat alpha thrombin inhibition, slope normalized to DMSO (rat α-thrombin; peptide concentration 6.10E-03 uM): 72.5 and 78.4 and 84.7 | Rat alpha thrombin inhibition, slope normalized to DMSO (rat α-thrombin; peptide concentration 6.25E+00 uM): 7.7 and -0.5 | Rat alpha thrombin inhibition, slope normalized to DMSO (rat α-thrombin; peptide concentration 7.63E-04 uM): 95.8 and 97.3 and 89.3 | Rat alpha thrombin inhibition, slope normalized to DMSO (rat α-thrombin; peptide concentration 7.81E-01 uM): 10.1 and 10.3 and 8.9 | Rat alpha thrombin inhibition, slope normalized to DMSO (rat α-thrombin; peptide concentration 9.54E-05 uM): 96.1 and 92.0 and 94.2 | Rat alpha thrombin inhibition, slope normalized to DMSO (rat α-thrombin; peptide concentration 9.77E-02 uM): 27.3 and 26.5 and 22.9 | Ki (rat α-thrombin; purified peptide, mean and s.d. of three measurements, read-out: Ki rat α-thrombin): 11.1 ± 1.4 nM | IC50 (rat α-thrombin; single replicates R1-R3, read-out: Rat alpha thrombin inhibition, IC50): 17.1 nM and 20.2 nM and 23.1 nM | Ki (rat α-thrombin; single replicates R1-R3, read-out: Rat alpha thrombin inhibition, Ki): 9.46 nM and 11.2 nM and 12.8 nM | remaining at 8 h (porcine pepsin): 101 ± 12% | PAMPA permeability: % permeability ([1]; 50 μM, 12–18 h, acceptor concentration relative to equilibrium): 66 ± 19% | Permeability% (single replicates R1–R3) ([1]; 50 μM, 12 h (Fig. 6d)): 52.91% and 57.15% and 54.20% | Permeability% Average ([1]; 50 μM, 12 h (Fig. 6d)): 54.8% | Permeability% (single replicates R1–R3) ([1]; 50 μM, 13 h (Fig. 5d)): 79.02% and 44.84% and 74.28% | Permeability% Average ([1]; 50 μM, 13 h (Fig. 5d)): 66.0% | Papp at 50 μM ([1]; PAMPA, pH 7.4): 9.77 ×10⁻⁶ cm/s | TIC value of compound, metabolic stability RLM ([2]; 0 min): 15121279 (2×) and 12636158 | TIC value of compound, metabolic stability RLM ([2]; 5 min): 12214985 and 10185041 and 10498454 | TIC value of compound, metabolic stability RLM ([2]; 15 min): 8936637 and 6181065 and 6718551 | TIC value of compound, metabolic stability RLM ([2]; 30 min): 4407741 and 2845968 and 2692424 | TIC value of compound, metabolic stability RLM ([2]; 60 min): 749207 and 393357 and 268692 | CL (ul/min/mg protein) in RLMs (single replicates R1–R3) ([2]; Fig. 5e source data): 82.7957 ul/min/mg protein and 93.0201 ul/min/mg protein and 80.07 ul/min/mg protein and 82.80 ul/min/mg protein and 93.02 ul/min/mg protein | Half Life (min) in RLMs (single replicates R1–R3) ([2]; Fig. 5e source data): 16.74 min and 14.9 min | Half Life, RLM ([2]; individual replicates R1-R3): 16.74 min and 14.9 min | microsomal CLint ([2]; CL (ul/min/mg protein) in RLMs (single replicates R1–R3), Fig. 5e source data): 80.1 µL/min/mg | microsomal CLint ([2]; Clearance (CL) in RLMs, calculated from half-life, mean and s.d. of three measurements): 85 ± 6 µL/min/mg | half-life ([2]; Half Life (min) in RLMs (single replicates R1–R3), Fig. 5e source data): 17.3 min | half-life ([2]; Half Life, RLM, individual replicates R1-R3): 17.3 min | microsomal CLint ([2]; pH 7.4, CL (ul/min/mg protein) in RLMs Average, Fig. 5e source data): 85.3 µL/min/mg | half-life ([2]; pH 7.4, Metabolic stability: Half life T1/2 (min), RLMs, mean and SD, three measurements): 16.3 ± 1 min
